In PubChem BioAssay (NCI):
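Cultured in 96-well plates, cells were exposed to test compound for 48 hours across five concentrations. At the GI50, growth is halved. The concentration for full growth arrest is given as TGI.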

How the values were obtained:
Assay in all cases: growth of human tumour cells (NCI), 48 h
SW-620 colon = system: SW-620 colon
A549 NSCLC = system: A549 NSCLC
CAKI-1 renal = system: CAKI-1 renal
RXF 393 renal = system: RXF 393 renal
SK-MEL-2 melanoma = system: SK-MEL-2 melanoma
UACC-62 melanoma = system: UACC-62 melanoma
786-0 renal = system: 786-0 renal
TK-10 renal = system: TK-10 renal
HCT-15 colon = system: HCT-15 colon
NCI-H522 lung = system: NCI-H522 lung

Structure (SMILES) | GI50 (SW-620 colon) [µM] | TGI (SW-620 colon) [µM] | GI50 (A549 NSCLC) [µM] | TGI (A549 NSCLC) [µM] | GI50 (CAKI-1 renal) [µM] | TGI (CAKI-1 renal) [µM] | GI50 (RXF 393 renal) [µM] | TGI (RXF 393 renal) [µM] | GI50 (SK-MEL-2 melanoma) [µM] | TGI (SK-MEL-2 melanoma) [µM] | GI50 (UACC-62 melanoma) [µM] | TGI (UACC-62 melanoma) [µM] | GI50 (786-0 renal) [µM] | TGI (786-0 renal) [µM] | GI50 (TK-10 renal) [µM] | TGI (TK-10 renal) [µM] | GI50 (HCT-15 colon) [µM] | TGI (HCT-15 colon) [µM] | GI50 (NCI-H522 lung) [µM] | TGI (NCI-H522 lung) [µM]
CC(=O)O.CC(=O)O.CC(=O)O.CC(=O)O.[Rh].[Rh] | 22 | > 100 | 28.6 | > 100 | 12.2 | 30.7 | 10.5 | 78.3 | 30.7 | 81.4 | 24.3 | 56.5 | 34.8 | > 100 | 18.3 | 56.4 | 28.5 | 83.9 |  | 
Nc1ncccc1-c1nc2ccc(-c3ccccc3)nc2n1-c1ccc(C2(N)CCC2)cc1 | 1.53 | 3.35 | 1.69 | 6.81 |  |  | 0.214 | 1.63 | 1.65 | 3.54 | 1.37 | 2.99 | 0.212 | 1.6 | 0.719 | 8.01 | 1.34 | 4.27 | 1.53 | 3.47
CN1CCc2c1nc(-c1cccnc1)c1c2N(C)CC1 |  | > 100 |  | > 100 |  | > 100 |  | > 100 |  | > 100 |  | > 100 |  | > 100 |  | > 100 |  | > 100 |  | 
O=c1c(O)cccn1CCCN(CCCn1cccc(O)c1=O)CCn1cccc(O)c1=O | 9.02 | > 100 | 4.03 | 75.2 | 4.79 | > 100 | 1.86 | 9.83 |  |  | 2.14 | 76 | 7.81 | > 100 | 7.92 | > 100 | 10.3 | > 100 | 7.35 | > 100
Brc1cccc(-c2cc(-c3ccc4nccnc4c3)[nH]n2)c1 | 0.273 | > 250 | 0.86 | > 250 | 0.599 | > 250 |  |  | 1.55 | > 250 | 1.35 | > 250 | 1.66 | > 250 | 2.95 | > 250 | 0.165 | > 250 | 0.412 | > 250
N.N.N.N.N.O=S(=O)([O-])C(F)(F)F.O=S(=O)([O-])C(F)(F)F.[Os+8] | 8.48 | 41.4 | 24.2 | > 100 | 6.61 | 30.6 | 5.37 | 18.7 | 11.7 | 24.7 | 12.1 | 28.2 | 4.2 | 16.4 | 33 | 95.4 | 17 | 56.4 |  | 
Nc1n[nH]c2ccc([C@@H]3Nc4cc5[nH]ncc5cc4[C@H]4C5CCC(C5)[C@@H]34)cc12 (stereo not given in full) | 0.392 | > 100 | 0.584 | > 100 | 0.355 | > 39.2 |  |  | 0.736 | > 70.5 | 0.272 | 17.4 | 0.709 | > 66.7 | 17.2 | > 95.9 | 0.431 | > 100 | 0.396 | > 45.6
NCCC(=O)NC(Cc1cnc[nH]1)C(=O)O (stereo not given) |  | > 100 |  | > 100 |  | > 100 |  |  |  | > 100 |  |  |  | > 100 |  | > 100 |  | > 100 |  | > 100
CCCCc1c2c(nc3c1CCc1cc4cc5c(nc4nc1-3)-c1nc3c(c(CCCC)c1CC5)CCC/C3=C\c1ccccc1)/C(=C/c1ccccc1)CCC2 |  | > 100 |  | > 100 |  |  |  | > 100 |  |  |  | > 100 |  | > 100 |  | > 100 |  | > 100 |  | > 100
O=C(COc1ccc(Cl)cc1)N1CCN(C(=O)COc2ccc(Cl)cc2)c2ccccc21 |  | > 100 |  | > 100 |  |  |  | > 100 |  | > 100 |  |  |  | > 100 |  | > 100 |  |  |  | > 100
COc1ccc(-c2onc(-c3c(C)cc(C)cc3C)c2C2=NCCN2)cc1 |  | > 100 |  | > 100 |  | > 100 |  | > 100 |  | > 100 |  | > 100 |  | > 100 |  |  |  | > 100 |  | 
CCN(CC)C(=O)COc1cc2c(O)c3c(O)c(C)c4c(c13)C(=O)C(C)(OC=CC(OC)C(C)C(OC(C)=O)C(C)C(O)C(C)C(O)C(C)C=CC=C(C)C(=O)N2)O4 (stereo not given) |  | > 100 |  | > 100 |  | > 100 |  | > 100 |  | > 100 |  | > 100 |  | > 100 |  | > 100 |  | > 100 |  | 
COc1ccc2c(c1)C(=O)c1c-2n(CCCN)c(=O)c2cc([N+](=O)[O-])ccc12 | < 0.01 | 0.146 |  |  | < 0.01 | < 0.01 | < 0.01 | < 0.01 | 3.06 | 8.53 | < 0.01 | < 0.01 | < 0.01 | < 0.01 | 3.33 | 10 | 1.77 | > 100 | < 0.01 | 2.91
O=c1c(-c2ccccc2)coc2cc(OC/C(=N/O)c3ccc(F)cc3)ccc12 | 17.1 | 33.4 | 13.6 | 35.9 | 0.0715 | 26.3 | 17.7 | 37.5 |  |  | 15.8 | 31.8 | 19.3 | 41.8 | 16.9 | 39.5 | 21.3 | 50.3 | 14.5 | 46
Nc1cc2cccc[n+]2c2cccc(Cl)c12 | 34.2 |  | 30.9 |  |  |  |  |  | 10.7 | 28.1 | 24.7 | 59.8 | 22.1 |  | 94.7 |  |  |  | 16.2 | 78
Cc1nc2c(sc(=S)n2-c2ccccc2)c2nc3ccccc3n12 |  |  |  |  |  | > 100 |  | > 100 |  | > 100 |  | > 100 |  | > 100 |  | > 100 |  | > 100 |  | > 100
COc1cc2c(cc1-c1coc3cc(OCC=C(C)C)ccc3c1=O)OCO2 |  | > 100 |  | > 100 |  | 58.5 |  |  |  | > 100 |  | > 100 |  | 61.8 |  | > 100 |  | 32.8 |  | 48.9
